Measured values reported in PubChem BioAssay (NCI).
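Grown in 96-well plates, cells were treated for 48 hours with each compound at five concentrations. Insufficient inhibition: endpoint recorded as highest concentration tested. TGI denotes the concentration required for complete inhibition of growth.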

Test system: PC-3 prostate
Test: inhibition of tumour cell growth, NCI panel, 48 h

`CCCCCCCCCCCCCCCCCCNc1ccn(C2OC(COP(=O)(O)OC3CC(n4cc(F)c(=O)[nH]c4=O)OC3COP(=O)(O)OCC3OC(n4ccc(N)nc4=O)C(O)C3O)C(O)C2O)c(=O)n1` (stereo not given) was tested, and the TGI was > 66.7 µM.

Test system: MDA-MB-231 breast
Test: inhibition of tumour cell growth, NCI panel, 48 h

First: N#CC(C#N)N=Cc1ccncc1
Second: COc1cc(/C=C(\C#N)c2nc3ccccc3o2)ccc1O
The TGI of the first is higher: > 100 µM for the first, 68.5 µM for the second.

`COC(=O)C1=C(O)C(C(=O)OC)[C@]2(O)[C@H](C(=O)OC)[C@H]1C[C@@H](c1ccc(F)cc1)[C@H]2C(=O)OC` (stereo not given in full) and `CCOC(=O)C1=CN/C(=C(/C)C(=O)OC)SC1C(=O)OCC` (stereo not given) cannot be ordered by TGI: > 100 µM for the first, > 100 µM for the second.

First: CC(=O)O[C@H]1CC[C@H]2[C@@H]3CCC4C(C)=NNC(=O)C4[C@H]3CC[C@]12C (stereo not given in full)
Second: CC1(C)C2CCC3=C(CCC4(C)C5C[C@](C)(C(=O)O)CC[C@]5(C)CC[C@]34C)[C@@]2(C)CC[C@@H]1O (stereo not given in full)
The TGI of the first is higher: > 82.8 µM for the first, 33.8 µM for the second.

Compared with `O=c1[nH]c(C23CC4CC(CC(C4)C2)C3)cc2c1c(=O)oc1ccccc12`, `O=C1C(=O)c2c(oc(=O)c3ccccc23)-c2ccccc21` is higher in TGI: 10.8 µM for the first, > 25 µM for the second.

`CN1CCC2(CC1)SC[C@H]1C(=O)N(c3ccc(Cl)cc3)C(=O)N12` and `O=C(N/N=C/c1ccc2c(c1)OCO2)Nc1ccccc1Cl` cannot be ordered by TGI: > 100 µM for the first, > 100 µM for the second.

Compared with `CC(C)=CCC[C@@H](C)C1=C(O)C(O)C(C)=C2N=C(c3ccccc3)C(=O)OC21` (stereo not given in full), `Cc1cc(C)nc(NS(=O)(=O)c2ccc(NNc3c4ccccc4nc4c(C(=O)Nc5ccc(S(=O)(=O)Nc6ncccn6)cc5)cccc34)cc2)n1` is 3.8-fold higher in TGI: 17.3 µM for the first, 65.3 µM for the second.

`COc1ccc2cc(CNCCCCCCCCCCCCNCc3ccc4cc(OC)ccc4c3)ccc2c1` and `CCCCCCCCCCCCCCCCCCNc1ccn(C2OC(COP(=O)(O)OC3CC(n4cc(F)c(=O)[nH]c4=O)OC3COP(=O)(O)OCC3OC(n4ccc(N)nc4=O)C(O)C3O)C(O)C2O)c(=O)n1` (stereo not given) cannot be ordered by TGI: > 51.5 µM for the first, > 61.7 µM for the second.

First: O=C1CC(NC(=O)C(F)(F)F)c2c1csc2Br (stereo not given)
Second: CCOC(=O)C(SCCO)C(C(=O)OCC)n1cnc2c(N)ncnc21 (stereo not given)
The TGI of the first is higher: > 100 µM for the first, 32.7 µM for the second.

Test system: T-47D breast
Test: inhibition of tumour cell growth, NCI panel, 48 h

Going from `N#CC(C#N)N=Cc1ccncc1` to `COc1cc(/C=C(\C#N)c2nc3ccccc3o2)ccc1O`, the TGI falls from > 100 µM to 46.9 µM.

`COC(=O)C1=C(O)C(C(=O)OC)[C@]2(O)[C@H](C(=O)OC)[C@H]1C[C@@H](c1ccc(F)cc1)[C@H]2C(=O)OC` (stereo not given in full) and `CCOC(=O)C1=CN/C(=C(/C)C(=O)OC)SC1C(=O)OCC` (stereo not given) cannot be ordered by TGI: > 100 µM for the first, > 100 µM for the second.

First: CC(=O)O[C@H]1CC[C@H]2[C@@H]3CCC4C(C)=NNC(=O)C4[C@H]3CC[C@]12C (stereo not given in full)
Second: CC1(C)C2CCC3=C(CCC4(C)C5C[C@](C)(C(=O)O)CC[C@]5(C)CC[C@]34C)[C@@]2(C)CC[C@@H]1O (stereo not given in full)
The TGI of the first is higher: > 100 µM for the first, 38.4 µM for the second.

`O=c1[nH]c(C23CC4CC(CC(C4)C2)C3)cc2c1c(=O)oc1ccccc12` and `O=C1C(=O)c2c(oc(=O)c3ccccc23)-c2ccccc21` cannot be ordered by TGI: 44.6 µM for the first, > 25 µM for the second.

`CN1CCC2(CC1)SC[C@H]1C(=O)N(c3ccc(Cl)cc3)C(=O)N12` and `O=C(N/N=C/c1ccc2c(c1)OCO2)Nc1ccccc1Cl` cannot be ordered by TGI: > 100 µM for the first, > 38.3 µM for the second.

Going from `CC(C)=CCC[C@@H](C)C1=C(O)C(O)C(C)=C2N=C(c3ccccc3)C(=O)OC21` (stereo not given in full) to `Cc1cc(C)nc(NS(=O)(=O)c2ccc(NNc3c4ccccc4nc4c(C(=O)Nc5ccc(S(=O)(=O)Nc6ncccn6)cc5)cccc34)cc2)n1`, the TGI rises from 8.66 µM to 74.3 µM (8.6-fold).

First: COc1ccc2cc(CNCCCCCCCCCCCCNCc3ccc4cc(OC)ccc4c3)ccc2c1
Second: CCCCCCCCCCCCCCCCCCNc1ccn(C2OC(COP(=O)(O)OC3CC(n4cc(F)c(=O)[nH]c4=O)OC3COP(=O)(O)OCC3OC(n4ccc(N)nc4=O)C(O)C3O)C(O)C2O)c(=O)n1 (stereo not given)
The TGI of the first is lower: 49.9 µM for the first, > 100 µM for the second.

Compared with `O=C1CC(NC(=O)C(F)(F)F)c2c1csc2Br` (stereo not given), `CCOC(=O)C(SCCO)C(C(=O)OCC)n1cnc2c(N)ncnc21` (stereo not given) is lower in TGI: > 100 µM for the first, 30.8 µM for the second.

Test system: HT29 colon
Test: inhibition of tumour cell growth, NCI panel, 48 h

Going from `N#CC(C#N)N=Cc1ccncc1` to `COc1cc(/C=C(\C#N)c2nc3ccccc3o2)ccc1O`, the TGI falls from > 100 µM to 48.1 µM.

Compared with `COC(=O)C1=C(O)C(C(=O)OC)[C@]2(O)[C@H](C(=O)OC)[C@H]1C[C@@H](c1ccc(F)cc1)[C@H]2C(=O)OC` (stereo not given in full), `CCOC(=O)C1=CN/C(=C(/C)C(=O)OC)SC1C(=O)OCC` (stereo not given) is higher in TGI: 34 µM for the first, > 100 µM for the second.

Compared with `CC(=O)O[C@H]1CC[C@H]2[C@@H]3CCC4C(C)=NNC(=O)C4[C@H]3CC[C@]12C` (stereo not given in full), `CC1(C)C2CCC3=C(CCC4(C)C5C[C@](C)(C(=O)O)CC[C@]5(C)CC[C@]34C)[C@@]2(C)CC[C@@H]1O` (stereo not given in full) is lower in TGI: > 100 µM for the first, 33 µM for the second.

Compared with `O=c1[nH]c(C23CC4CC(CC(C4)C2)C3)cc2c1c(=O)oc1ccccc12`, `O=C1C(=O)c2c(oc(=O)c3ccccc23)-c2ccccc21` is higher in TGI: 15.7 µM for the first, > 25 µM for the second.

`CN1CCC2(CC1)SC[C@H]1C(=O)N(c3ccc(Cl)cc3)C(=O)N12` and `O=C(N/N=C/c1ccc2c(c1)OCO2)Nc1ccccc1Cl` cannot be ordered by TGI: > 100 µM for the first, > 49.1 µM for the second.

Compared with `CC(C)=CCC[C@@H](C)C1=C(O)C(O)C(C)=C2N=C(c3ccccc3)C(=O)OC21` (stereo not given in full), `Cc1cc(C)nc(NS(=O)(=O)c2ccc(NNc3c4ccccc4nc4c(C(=O)Nc5ccc(S(=O)(=O)Nc6ncccn6)cc5)cccc34)cc2)n1` is 4.2-fold higher in TGI: 18.5 µM for the first, 77.4 µM for the second.

Compared with `COc1ccc2cc(CNCCCCCCCCCCCCNCc3ccc4cc(OC)ccc4c3)ccc2c1`, `CCCCCCCCCCCCCCCCCCNc1ccn(C2OC(COP(=O)(O)OC3CC(n4cc(F)c(=O)[nH]c4=O)OC3COP(=O)(O)OCC3OC(n4ccc(N)nc4=O)C(O)C3O)C(O)C2O)c(=O)n1` (stereo not given) is higher in TGI: 23 µM for the first, > 59.4 µM for the second.

Going from `O=C1CC(NC(=O)C(F)(F)F)c2c1csc2Br` (stereo not given) to `CCOC(=O)C(SCCO)C(C(=O)OCC)n1cnc2c(N)ncnc21` (stereo not given), the TGI falls from > 100 µM to 25.4 µM.

Test system: BT-549 breast
Test: inhibition of tumour cell growth, NCI panel, 48 h

Compared with `N#CC(C#N)N=Cc1ccncc1`, `COc1cc(/C=C(\C#N)c2nc3ccccc3o2)ccc1O` is lower in TGI: > 100 µM for the first, 34.5 µM for the second.

Compared with `COC(=O)C1=C(O)C(C(=O)OC)[C@]2(O)[C@H](C(=O)OC)[C@H]1C[C@@H](c1ccc(F)cc1)[C@H]2C(=O)OC` (stereo not given in full), `CCOC(=O)C1=CN/C(=C(/C)C(=O)OC)SC1C(=O)OCC` (stereo not given) is higher in TGI: 65.9 µM for the first, > 100 µM for the second.

Compared with `CC(=O)O[C@H]1CC[C@H]2[C@@H]3CCC4C(C)=NNC(=O)C4[C@H]3CC[C@]12C` (stereo not given in full), `CC1(C)C2CCC3=C(CCC4(C)C5C[C@](C)(C(=O)O)CC[C@]5(C)CC[C@]34C)[C@@]2(C)CC[C@@H]1O` (stereo not given in full) is lower in TGI: > 69.7 µM for the first, 39.1 µM for the second.

`O=c1[nH]c(C23CC4CC(CC(C4)C2)C3)cc2c1c(=O)oc1ccccc12` and `O=C1C(=O)c2c(oc(=O)c3ccccc23)-c2ccccc21` cannot be ordered by TGI: 38.2 µM for the first, > 25 µM for the second.

Going from `CN1CCC2(CC1)SC[C@H]1C(=O)N(c3ccc(Cl)cc3)C(=O)N12` to `O=C(N/N=C/c1ccc2c(c1)OCO2)Nc1ccccc1Cl`, the TGI falls from > 100 µM to 75.7 µM.

`CC(C)=CCC[C@@H](C)C1=C(O)C(O)C(C)=C2N=C(c3ccccc3)C(=O)OC21` (stereo not given in full) and `Cc1cc(C)nc(NS(=O)(=O)c2ccc(NNc3c4ccccc4nc4c(C(=O)Nc5ccc(S(=O)(=O)Nc6ncccn6)cc5)cccc34)cc2)n1` cannot be ordered by TGI: > 25 µM for the first, > 100 µM for the second.

`COc1ccc2cc(CNCCCCCCCCCCCCNCc3ccc4cc(OC)ccc4c3)ccc2c1` and `CCCCCCCCCCCCCCCCCCNc1ccn(C2OC(COP(=O)(O)OC3CC(n4cc(F)c(=O)[nH]c4=O)OC3COP(=O)(O)OCC3OC(n4ccc(N)nc4=O)C(O)C3O)C(O)C2O)c(=O)n1` (stereo not given) are within 1.5-fold of each other in TGI: 33 µM for the first, 33.4 µM for the second.

First: O=C1CC(NC(=O)C(F)(F)F)c2c1csc2Br (stereo not given)
Second: CCOC(=O)C(SCCO)C(C(=O)OCC)n1cnc2c(N)ncnc21 (stereo not given)
The TGI of the first is higher: > 100 µM for the first, 30.8 µM for the second.

Test system: MALME-3M melanoma
Test: inhibition of tumour cell growth, NCI panel, 48 h

Compared with `N#CC(C#N)N=Cc1ccncc1`, `COc1cc(/C=C(\C#N)c2nc3ccccc3o2)ccc1O` is lower in TGI: > 100 µM for the first, 56.3 µM for the second.

Going from `COC(=O)C1=C(O)C(C(=O)OC)[C@]2(O)[C@H](C(=O)OC)[C@H]1C[C@@H](c1ccc(F)cc1)[C@H]2C(=O)OC` (stereo not given in full) to `CCOC(=O)C1=CN/C(=C(/C)C(=O)OC)SC1C(=O)OCC` (stereo not given), the TGI rises from 28 µM to > 100 µM.

First: CC(=O)O[C@H]1CC[C@H]2[C@@H]3CCC4C(C)=NNC(=O)C4[C@H]3CC[C@]12C (stereo not given in full)
Second: CC1(C)C2CCC3=C(CCC4(C)C5C[C@](C)(C(=O)O)CC[C@]5(C)CC[C@]34C)[C@@]2(C)CC[C@@H]1O (stereo not given in full)
The TGI of the first is higher: > 100 µM for the first, 31.5 µM for the second.

Going from `O=c1[nH]c(C23CC4CC(CC(C4)C2)C3)cc2c1c(=O)oc1ccccc12` to `O=C1C(=O)c2c(oc(=O)c3ccccc23)-c2ccccc21`, the TGI rises from 13.7 µM to > 25 µM.

Compared with `CN1CCC2(CC1)SC[C@H]1C(=O)N(c3ccc(Cl)cc3)C(=O)N12`, `O=C(N/N=C/c1ccc2c(c1)OCO2)Nc1ccccc1Cl` is lower in TGI: > 100 µM for the first, 56.2 µM for the second.

First: CC(C)=CCC[C@@H](C)C1=C(O)C(O)C(C)=C2N=C(c3ccccc3)C(=O)OC21 (stereo not given in full)
Second: Cc1cc(C)nc(NS(=O)(=O)c2ccc(NNc3c4ccccc4nc4c(C(=O)Nc5ccc(S(=O)(=O)Nc6ncccn6)cc5)cccc34)cc2)n1
The TGI of the first is 3.9-fold lower: 15.4 µM for the first, 60.3 µM for the second.

`COc1ccc2cc(CNCCCCCCCCCCCCNCc3ccc4cc(OC)ccc4c3)ccc2c1` and `CCOC(=O)C(SCCO)C(C(=O)OCC)n1cnc2c(N)ncnc21` (stereo not given) are within 1.5-fold of each other in TGI: 31.8 µM for the first, 23.8 µM for the second.

For `O=C1CC(NC(=O)C(F)(F)F)c2c1csc2Br` (stereo not given), the TGI was > 100 µM.
